Measured values as given in ChEMBL document CHEMBL1201861, “Genomics of Drug Sensitity in Cancer screening data, Wellcome Trust Sanger Institute”.

Columns and labels:
Assay in all cases: cells
Conditions in all cases: Homo sapiens
NCI-H1299 = format: functional, cell-based;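 further: growth inhibition of human NCI-H1299 cells, read out by a cell viability assay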
Description: SANGER: Inhibition of human NCI-H1299 cell growth in a cell viability assay.

KURAMOCHI = format: functional, cell-based;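 further: growth inhibition of KURAMOCHI cells, read out with a cell viability assay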
Description: SANGER: Inhibition of human KURAMOCHI cell growth in a cell viability assay.

Ramos-2G6-4C10 = format: functional, cell-based;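 further: growth inhibition of the cell line, measured by a cell viability read-out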
Description: SANGER: Inhibition of human Ramos-2G6-4C10 cell growth in a cell viability assay.

IST-MES1 = format: functional, cell-based;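 further: growth inhibition of IST-MES1 cells, measured with a cell viability assay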
Description: SANGER: Inhibition of human IST-MES1 cell growth in a cell viability assay.

MC116 = format: functional, cell-based;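 further: growth inhibition of MC116 cells, read out with a cell viability assay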
Description: SANGER: Inhibition of human MC116 cell growth in a cell viability assay.

KP-N-YS = format: functional, cell-based;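 further: cell viability assay measuring inhibition of cell line growth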
Description: SANGER: Inhibition of human KP-N-YS cell growth in a cell viability assay.

MLMA = format: functional, cell-based;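 further: growth inhibition of MLMA cells (human), determined through a cell viability readout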
Description: SANGER: Inhibition of human MLMA cell growth in a cell viability assay.

ES6 = format: functional, cell-based;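 further: growth inhibition of human ES6 cells, read out with a cell viability assay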
Description: SANGER: Inhibition of human ES6 cell growth in a cell viability assay.

ES7 = format: functional, cell-based;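 further: growth inhibition of cultured human ES7 cells, read out as cell viability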
Description: SANGER: Inhibition of human ES7 cell growth in a cell viability assay.

DMS-79 = format: functional, cell-based;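 further: growth inhibition measured with a cell viability assay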
Description: SANGER: Inhibition of human DMS-79 cell growth in a cell viability assay.

HT = format: functional, cell-based
Description: SANGER: Inhibition of human HT cell growth in a cell viability assay.

CTB-1 = format: functional, cell-based
Description: SANGER: Inhibition of human CTB-1 cell growth in a cell viability assay.

SW 954 = format: functional, cell-based;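 further: growth inhibition of SW954 human cancer cells, read out as cell viability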
Description: SANGER: Inhibition of human SW954 cell growth in a cell viability assay.

DU-4475 = format: functional, cell-based
Description: SANGER: Inhibition of human DU-4475 cell growth in a cell viability assay.

SNU1 = format: functional, cell-based;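 further: growth inhibition of human NCI-SNU-1 cells, measured with a cell viability assay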
Description: SANGER: Inhibition of human NCI-SNU-1 cell growth in a cell viability assay.

OCI-AML2 = format: functional, cell-based;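 further: growth inhibition of OCI-AML2 cells, read out with a cell viability assay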
Description: SANGER: Inhibition of human OCI-AML2 cell growth in a cell viability assay.

EC-GI-10 = format: functional, cell-based
Description: SANGER: Inhibition of human EC-GI-10 cell growth in a cell viability assay.

LB2241-RCC = format: functional, cell-based;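 further: cell viability assay measuring how strongly the cultured human renal carcinoma line is prevented from growing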
Description: SANGER: Inhibition of human LB2241-RCC cell growth in a cell viability assay.

LS-513 = format: functional, cell-based
Description: SANGER: Inhibition of human LS-513 cell growth in a cell viability assay.

NH-12 = format: functional, cell-based;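 further: growth inhibition of NH-12 cells, read out with a cell viability assay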
Description: SANGER: Inhibition of human NH-12 cell growth in a cell viability assay.

ONS-76 = format: functional, cell-based;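 further: growth inhibition of human ONS-76 cells, read out with a cell viability assay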
Description: SANGER: Inhibition of human ONS-76 cell growth in a cell viability assay.

NCI-H510A = format: functional, cell-based;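 further: growth inhibition of NCI-H510A cells, read out with a cell viability assay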
Description: SANGER: Inhibition of human NCI-H510A cell growth in a cell viability assay.

SNB-75 = format: functional, cell-based;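 further: cell viability assay measuring growth inhibition of human SNB-75 cells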
Description: SANGER: Inhibition of human SNB75 cell growth in a cell viability assay.

LB771-HNC = format: functional, cell-based;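 further: growth inhibition of LB771-HNC human cells, read out with a cell viability assay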
Description: SANGER: Inhibition of human LB771-HNC cell growth in a cell viability assay.

697 = format: functional, cell-based
Description: SANGER: Inhibition of human 697 cell growth in a cell viability assay.

NB69 = format: functional, cell-based;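 further: growth inhibition of NB69 cells, determined by a cell viability assay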
Description: SANGER: Inhibition of human NB69 cell growth in a cell viability assay.

U-266 = format: functional, cell-based
Description: SANGER: Inhibition of human U-266 cell growth in a cell viability assay.

D283 Med = format: functional, cell-based
Description: SANGER: Inhibition of human D-283MED cell growth in a cell viability assay.

KG-1 = format: functional, cell-based;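 further: growth inhibition of KG-1 cells, read out by a cell viability assay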
Description: SANGER: Inhibition of human KG-1 cell growth in a cell viability assay.

SK-MEL-1 = format: functional, cell-based;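 further: growth inhibition of human SK-MEL-1 cells, read out by a cell viability assay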
Description: SANGER: Inhibition of human SK-MEL-1 cell growth in a cell viability assay.

SK-N-FI = format: functional, cell-based;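 further: cell viability assay measuring growth inhibition of human SK-N-FI cells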
Description: SANGER: Inhibition of human SK-N-FI cell growth in a cell viability assay.

CP66-MEL = format: functional, cell-based;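 further: growth inhibition of CP66-MEL cells determined in a cell viability assay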
Description: SANGER: Inhibition of human CP66-MEL cell growth in a cell viability assay.

NCI-H1770 = format: functional, cell-based;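 further: growth inhibition of NCI-H1770 cells determined with a viability readout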
Description: SANGER: Inhibition of human NCI-H1770 cell growth in a cell viability assay.

ATN-1 = format: functional, cell-based;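 further: growth inhibition of human ATN-1 cells, read out with a cell viability assay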
Description: SANGER: Inhibition of human ATN-1 cell growth in a cell viability assay.

LU-134-A = format: functional, cell-based
Description: SANGER: Inhibition of human LU-134-A cell growth in a cell viability assay.

Becker = format: functional, cell-based;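 further: growth inhibition of Becker cells, read out with a cell viability assay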
Description: SANGER: Inhibition of human Becker cell growth in a cell viability assay.

ES1 = format: functional, cell-based
Description: SANGER: Inhibition of human ES1 cell growth in a cell viability assay.

NB13 = format: functional, cell-based;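 further: cell viability readout measuring growth inhibition of human NB13 cells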
Description: SANGER: Inhibition of human NB13 cell growth in a cell viability assay.

OMC-1 = format: functional, cell-based;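 further: growth inhibition of the OMC-1 cell line, measured by a cell viability assay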
Description: SANGER: Inhibition of human OMC-1 cell growth in a cell viability assay.

ALL-PO = format: functional, cell-based;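 further: growth inhibition of ALL-PO cells, read out by a cell viability assay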
Description: SANGER: Inhibition of human ALL-PO cell growth in a cell viability assay.

MZ2-MEL = format: functional, cell-based;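 further: growth inhibition of MZ2-MEL cells read out with a cell viability assay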
Description: SANGER: Inhibition of human MZ2-MEL cell growth in a cell viability assay.

GB-1 = format: functional, cell-based;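 further: growth of GB-1 cells judged by a viability assay, IC50 marks the concentration inhibiting growth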
Description: SANGER: Inhibition of human GB-1 cell growth in a cell viability assay.

LU-139 = format: functional, cell-based
Description: SANGER: Inhibition of human LU-139 cell growth in a cell viability assay.

MOLT-4 = format: functional, cell-based;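 further: growth inhibition of MOLT-4 cells, determined with a cell viability readout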
Description: SANGER: Inhibition of human MOLT-4 cell growth in a cell viability assay.

NCI-H446 = format: functional, cell-based;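 further: growth inhibition of NCI-H446 cells determined by a cell viability assay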
Description: SANGER: Inhibition of human NCI-H446 cell growth in a cell viability assay.

RPMI-8226 = format: functional, cell-based
Description: SANGER: Inhibition of human RPMI-8226 cell growth in a cell viability assay.

D-502MG = format: functional, cell-based
Description: SANGER: Inhibition of human D-502MG cell growth in a cell viability assay.

SF-539 = format: functional, cell-based;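 further: Read-out is a cell viability assay, with IC50 reflecting inhibition of cell growth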
Description: SANGER: Inhibition of human SF539 cell growth in a cell viability assay.

BB65-RCC = format: functional, cell-based;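 further: growth inhibition of the cell line, measured with a cell viability assay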
Description: SANGER: Inhibition of human BB65-RCC cell growth in a cell viability assay.

GI-1 = format: functional, cell-based
Description: SANGER: Inhibition of human GI-1 cell growth in a cell viability assay.

CW-2 = format: functional, cell-based;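 further: growth inhibition of CW-2 cells, read out by a cell viability assay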
Description: SANGER: Inhibition of human CW-2 cell growth in a cell viability assay.

HDLM-2 = format: functional, cell-based;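 further: cell viability assay measuring suppression of HDLM-2 proliferation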
Description: SANGER: Inhibition of human HDLM-2 cell growth in a cell viability assay.

HCC2218 = format: functional, cell-based;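 further: cell viability assay read-out, with IC50 given as the concentration that inhibits growth of the cell line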
Description: SANGER: Inhibition of human HCC2218 cell growth in a cell viability assay.

JVM-3 = format: functional, cell-based;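 further: growth inhibition of human JVM-3 cells, read out with a cell viability assay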
Description: SANGER: Inhibition of human JVM-3 cell growth in a cell viability assay.

DMS-114 = format: functional, cell-based
KU812 cell line = format: functional, cell-based;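 further: growth inhibition of KU812 cells, read out with a cell viability assay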
Description: SANGER: Inhibition of human KU812 cell growth in a cell viability assay.

J-RT3-T3-5 = format: functional, cell-based;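 further: cell viability assay measuring growth inhibition of human J-RT3-T3-5 cells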
Description: SANGER: Inhibition of human J-RT3-T3-5 cell growth in a cell viability assay.

ES3 = format: functional, cell-based;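 further: growth inhibition of ES3 cells, read out with a cell viability assay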
Description: SANGER: Inhibition of human ES3 cell growth in a cell viability assay.

MHH-PREB-1 = format: functional, cell-based;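 further: cell viability assay measuring inhibition of proliferation of human MHH-PREB-1 cells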
Description: SANGER: Inhibition of human MHH-PREB-1 cell growth in a cell viability assay.

BB30-HNC = format: functional, cell-based;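 further: growth inhibition of the cultured cell line, read out by a cell viability assay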
Description: SANGER: Inhibition of human BB30-HNC cell growth in a cell viability assay.

SW684 = format: functional, cell-based;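 further: growth inhibition of human SW684 cells, measured by a cell viability assay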
Description: SANGER: Inhibition of human SW684 cell growth in a cell viability assay.

MSTO-211H = format: functional, cell-based
Description: SANGER: Inhibition of human MSTO-211H cell growth in a cell viability assay.

MV4-11 = format: functional, cell-based, MV-4-11;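 further: cell viability readout measuring growth inhibition of human MV-4-11 cells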
Description: SANGER: Inhibition of human MV-4-11 cell growth in a cell viability assay.

SW982 = format: functional, cell-based
Description: SANGER: Inhibition of human SW982 cell growth in a cell viability assay.

TGBC24TKB = format: functional, cell-based
Description: SANGER: Inhibition of human TGBC24TKB cell growth in a cell viability assay.

Cc1ccc(NC(=O)c2cccc(C(C)(C)C#N)c2)cc1Nc1ccc2ncn(C)c(=O)c2c1
IC50 (NCI-H1299): > 4 µM | IC50 (KURAMOCHI): > 4 µM | IC50 (Ramos-2G6-4C10): > 4 µM | IC50 (IST-MES1): > 4 µM | IC50 (MC116): > 4 µM | IC50 (KP-N-YS): > 4 µM | IC50 (MLMA): > 4 µM | IC50 (ES6): > 4 µM | IC50 (ES7): > 4 µM | IC50 (DMS-79): > 4 µM | IC50 (HT): > 4 µM | IC50 (CTB-1): > 4 µM | IC50 (SW 954): > 4 µM | IC50 (DU-4475): 0.0102 µM | IC50 (SNU1): 0.448 µM | IC50 (OCI-AML2): 0.017 µM | IC50 (EC-GI-10): > 4 µM | IC50 (LB2241-RCC): > 4 µM | IC50 (LS-513): 0.0741 µM | IC50 (NH-12): > 4 µM | IC50 (ONS-76): 0.167 µM | IC50 (NCI-H510A): > 4 µM | IC50 (SNB-75): > 4 µM | IC50 (LB771-HNC): > 4 µM | IC50 697: 0.364 µM | IC50 (NB69): 0.191 µM | IC50 (U-266): > 4 µM | IC50 (D283 Med): > 4 µM | IC50 (KG-1): 3.81 µM | IC50 (SK-MEL-1): 0.384 µM | IC50 (SK-N-FI): > 4 µM | IC50 (CP66-MEL): 0.132 µM | IC50 (NCI-H1770): > 4 µM | IC50 (ATN-1): > 4 µM | IC50 (LU-134-A): > 4 µM | IC50 (Becker): > 4 µM | IC50 (ES1): > 4 µM | IC50 (NB13): > 4 µM | IC50 (OMC-1): > 4 µM | IC50 (ALL-PO): 1.35 µM | IC50 (MZ2-MEL): 0.794 µM | IC50 (GB-1): > 4 µM | IC50 (LU-139): > 4 µM | IC50 (MOLT-4): > 4 µM | IC50 (NCI-H446): > 4 µM | IC50 (RPMI-8226): 2.47 µM | IC50 (D-502MG): 2.26 µM | IC50 (SF-539): > 4 µM | IC50 (BB65-RCC): > 4 µM | IC50 (GI-1): > 4 µM | IC50 (CW-2): > 4 µM | IC50 (HDLM-2): > 4 µM | IC50 (HCC2218): > 4 µM | IC50 (JVM-3): > 4 µM | IC50 (DMS-114): > 4 µM | IC50 (KU812 cell line): > 4 µM | IC50 (J-RT3-T3-5): > 4 µM | IC50 (ES3): > 4 µM | IC50 (MHH-PREB-1): > 4 µM | IC50 (BB30-HNC): 1.96 µM | IC50 (SW684): > 4 µM | IC50 (MSTO-211H): 3.95 µM | IC50 (MV4-11): 1.42 µM

NC(=O)c1ncn([C@@H]2O[C@H](COP(=O)(O)O)[C@@H](O)[C@H]2O)c1N
IC50 (NCI-H1299): > 2000 µM | IC50 (KURAMOCHI): > 2000 µM | IC50 (Ramos-2G6-4C10): 238 µM | IC50 (MC116): 1290 µM | IC50 (KP-N-YS): > 2000 µM | IC50 (MLMA): 375 µM | IC50 (ES6): > 2000 µM | IC50 (ES7): > 2000 µM | IC50 (DMS-79): > 2000 µM | IC50 (HT): 995 µM | IC50 (CTB-1): 646 µM | IC50 (SW 954): 412 µM | IC50 (SNU1): 464 µM | IC50 (OCI-AML2): 1150 µM | IC50 (EC-GI-10): > 2000 µM | IC50 (LB2241-RCC): 1370 µM | IC50 (SW982): > 2000 µM | IC50 (LS-513): > 2000 µM | IC50 (NH-12): > 2000 µM | IC50 (ONS-76): > 2000 µM | IC50 (NCI-H510A): > 2000 µM | IC50 (SNB-75): 1400 µM | IC50 (LB771-HNC): > 2000 µM | IC50 697: 483 µM | IC50 (NB69): 976 µM | IC50 (U-266): > 2000 µM | IC50 (D283 Med): > 2000 µM | IC50 (KG-1): 301 µM | IC50 (SK-MEL-1): > 2000 µM | IC50 (CP66-MEL): > 2000 µM | IC50 (NCI-H1770): 485 µM | IC50 (ATN-1): 412 µM | IC50 (LU-134-A): 959 µM | IC50 (Becker): > 2000 µM | IC50 (ES1): > 2000 µM | IC50 (OMC-1): > 2000 µM | IC50 (ALL-PO): 755 µM | IC50 (MZ2-MEL): > 2000 µM | IC50 (GB-1): > 2000 µM | IC50 (LU-139): 803 µM | IC50 (TGBC24TKB): 736 µM | IC50 (MOLT-4): 485 µM | IC50 (NCI-H446): > 2000 µM | IC50 (RPMI-8226): 501 µM | IC50 (D-502MG): > 2000 µM | IC50 (SF-539): > 2000 µM | IC50 (BB65-RCC): 1200 µM | IC50 (CW-2): > 2000 µM | IC50 (HDLM-2): 1780 µM | IC50 (JVM-3): > 2000 µM | IC50 (DMS-114): 1580 µM | IC50 (J-RT3-T3-5): > 2000 µM | IC50 (ES3): 1100 µM | IC50 (MHH-PREB-1): 416 µM | IC50 (BB30-HNC): 214 µM | IC50 (SW684): 896 µM | IC50 (MSTO-211H): 1740 µM | IC50 (MV4-11): 108 µM
